Molecules are shown by their SMILES. Converted amounts (≈) assume the structure as drawn. Where a SMILES comes first, the peptide text is derived from it. Bridges are numbered along the chain shown (N, C = ends).

In general, MBC refers to the smallest concentration meeting the test's criterion for killing. Low values mean greater bactericidal potency, high ones weaker bactericidal potency. The term MIC denotes the lowest concentration that inhibits growth of the organism. Read a high MIC as weaker potency.

For test [1], the system named is E. coli O111:B4 LPS-challenged BALB/c mice. Briefly: LPS-challenged mice experiment (septicemia model). It is filed as in vivo. Particulars: LPS 15 mg/kg i.p.; MccJ25 4.55 and 9.1 mg/kg BW; followed 72 h.
The test system of a further test is E. coli CVCC1515. The experiment in a line: MIC/MBC broth dilution, standard strain. It is filed as cell-based. How it is done:
(§1) The minimum inhibitory concentration (MIC) refers to the lowest concentration that can produce a significant hindrance to bacterial growth in a drug sensitivity test by adopting a broth dilution, with certain refinements and modifications based on the previous description ([25], [26]). In short, MccJ25 was dissolved in sterilized distilled water (SDW), serial 2-fold dilutions were prepared in Mueller-Hinton broth (MHB) through a 96-well microtiter plate, and the final concentration of MccJ25 was maintained in the range of 0.003125 to 256 μg/mL. Then, 2 μL of standard and clinically relevant overnight broth cultures of bacteria were inoculated into each well at a concentration of 5 × 10^6 CFU/mL. Microtiter plates were incubated at 37°C for one full day. Two groups were set up: positive (medium with inoculum) and negative (medium only) controls. The minimum bactericidal concentration (MBC) was measured in LB medium and refers to the first drug dilution value at which the initial bacterial concentration was reduced by 99.99%. The final analysis was determined by the results of three replicated and independent experiments. To further assess and clarify the antimicrobial activity of MccJ25, the protective ability against E. coli adhesion, live/dead assay, and killing curve were performed, the detailed methods were provided in Supplementary Materials .
Background: Dilution methods test growth across graded concentrations, often in twofold steps.

Another test has as its system E. coli 1499. The experiment in a line: MIC/MBC broth dilution, standard strain. It is filed as cell-based. As for the experimental part:
as §1

The subject of the next test is E. coli ATCC25922. The experiment in a line: MIC/MBC broth dilution, standard strain. It is filed as cell-based. As for the experimental part:
as §1

Test [2] has as its system Salmonella enteritidis CMCC50336. The experiment in a line: MIC/MBC broth dilution, standard strain. The class given is cell-based. How it is done: as §1
Test [3] deals with Shigella flexneri CMCC51571. The experiment in a line: MIC/MBC broth dilution, standard strain. The class given is cell-based. The note with it: LB medium, 99.99% reduction; three independent experiments. How it is done: as §1
In another test the test system is RAW 264.7 cells. Briefly: LPS-induced inflammation in macrophages. It is filed as cell-based, mouse. As for the experimental part: The mouse macrophage cell line RAW 264.7 was obtained in our lab and stored in liquid nitrogen. Cells were cultured in DMEM supplemented with 1% antibiotics (100 U/mL penicillin and 100 µg/mL streptomycin) with 20% FBS at 37°C and 5% CO2. Cells were transferred and inoculated in 12-well plates (1 × 10^4 cells/well) and cultured for 24 h.
RAW 264.7 cells (approximately 2 × 10^4 cells/well) were cultured with 1 µg/mL E. coli LPS for 3 h at 37°C in the absence (control) or presence of 1 μg/mL MccJ25 at 5% CO2. The cells and cell culture supernatants were then collected. Culture supernatant mixed with Griess reagent (1:1) and incubated for 15 min at room temperature. A microplate reader was used to measure […] (NO) at 540 nm. The changes in induced NO levels were clarified based on the comparison between the values of the treated and control groups. Each experiment was repeated three times.
The concentrations of tumor necrosis factor-α (TNF-α), interleukin-6 (IL-6), IL-4, interferon (IFN)-γ, and nitric oxide (NO) in serum were measured. In addition, TNF-α and NO levels were also measured in the supernatant of RAW264.7 cells. ELISA was performed using a commercial ELISA kit (eBioscience, San Diego, USA). LPS levels in plasma were analyzed using the QCL-1000 kit (Xiamen, China) based on the manufacturer’s standards. On the day of sacrifice, eyes were extracted with ethylenediaminetetraacetic acid (EDTA), and blood was collected into clean test tubes. Peripheral hemograms and white blood cells (WBCs) were analyzed using a Coulter LH755 hematology analyzer. The levels of serum D-lactate were measured using ELISA kit (Jiancheng, Nanjing, China) according to the manufacturer’s protocols.
The extent and mRNA expression levels of TNF-α, IL-6, IL-10, IL-1β, IFN-γ, and TLR4, and NF-κB in each body part of the jejunum, ileum, colon, and spleen and in RAW264.7 cells were clarified by RT–PCR as previously described ([31]). Primers for TNF-α, IL-6, IL-10, IL-1β, IFN-γ, TLR4, and NF-κB are described in Table S1 . […] Combined with gel electrophoresis and a NanoDrop 2000 spectrophotometer (Thermo Fisher Scientific, Wilmington, DE), the quality and quantity of total RNA were determined. […]
Frozen tissue samples and fresh cells were homogenized in RIPA lysis buffer containing protease inhibitors (Applygen, Beijing, China). Protein levels were determined using a BCA protein assay kit (Thermo Fisher Scientific, Rockford, IL). […] Chemofluorescence was detected using the ImageQuant LAS 4000 mini system (GE Healthcare Biosciences AB, Inc., Sweden) with Western Blot Luminance Reagent (Applygen, Beijing, China), and the membranes were cleaned with an ImageQuant TL (GE Healthcare Life Science) gel imaging system for quantification.

The next test has as its system E. coli LKFZ GL2. Briefly: MIC/MBC, clinical isolate. The class given is cell-based. Particulars: source pig stool. As for the experimental part:
as §1

The next test concerns E. coli LKFZ GZM4. The experiment in a line: MIC/MBC, clinical isolate. It is filed as cell-based. The note with it: source pig stool. As for the experimental part: as §1
[4] abbreviates: LB medium, 99.99% reduction, three independent experiments.
The mark [5] stands for this setting: broth dilution in MHB, 37°C, one day, three independent experiments.
Where [6] appears, read: broth dilution in MHB, 37°C, three independent experiments.

Consider `CC[C@H](C)[C@H](NC(=O)CNC(=O)[C@@H](NC(=O)[C@H](Cc1ccccc1)NC(=O)[C@H](Cc1ccc(O)cc1)NC(=O)[C@@H]1CCC(=O)NCC(=O)NCC(=O)N[C@@H](C)C(=O)NCC(=O)N[C@@H](Cc2c[nH]cn2)C(=O)N[C@@H](C(C)C)C(=O)N2CCC[C@H]2C(=O)N1)C(C)C)C(=O)NCC(=O)N[C@H](C(=O)N1CCC[C@H]1C(=O)N[C@H](C(=O)N[C@@H](CO)C(=O)N[C@@H](Cc1ccccc1)C(=O)N[C@@H](Cc1ccc(O)cc1)C(=O)NCC(=O)O)[C@@H](C)CC)[C@@H](C)O` [MccJ25, microcin J25] (GGAGHVPEYFVGIGTPISFYG-OH; lactam N-8 (inferred); C-terminus assumed), for which, in [1], the survival rate entry is given as “increased”. Moreover, the MBC against E. coli CVCC1515 (setting [4]) was 2.000 µg/mL (≈ 0.949 µM); against E. coli 1499 (setting [4]), 1.000 µg/mL (≈ 0.475 µM); against E. coli ATCC25922 (setting [4]), 0.500 µg/mL (≈ 0.237 µM); in test [2] (setting [4]) it was 4.000 µg/mL (≈ 1.9 µM); in test [3] it was 0.500 µg/mL (≈ 0.237 µM); against E. coli LKFZ GL2 (setting [4]), 0.500 µg/mL (≈ 0.237 µM). Further, the MBC in the test on E. coli LKFZ GZM4 (setting [4]) was determined as 1.000 µg/mL (≈ 0.475 µM). For the same molecule, the MIC worked out at 0.500 µg/mL (≈ 0.237 µM) in the test on E. coli CVCC1515 (setting [5]); 0.400 µg/mL (≈ 0.19 µM) in the test with E. coli 1499 (setting [5]); 0.125 µg/mL (≈ 0.0593 µM) against E. coli ATCC25922 (setting [5]); 2.000 µg/mL (≈ 0.949 µM) in test [2] (setting [5]); 0.250 µg/mL (≈ 0.119 µM) with E. coli LKFZ GL2 (setting [6]); 0.250 µg/mL (≈ 0.119 µM) in the test with E. coli LKFZ GZM4 (setting [6]). Further, the MIC/MBC in the test with E. coli CVCC1515 (ratio) is recorded as 0.250; with E. coli 1499 (ratio), 0.400; in the test with E. coli ATCC25922 (ratio), 0.250; in test [2] (ratio) it was 0.500; with E. coli LKFZ GL2 (ratio) it was 0.500; with E. coli LKFZ GZM4 (ratio) it was 0.250. Further, the “LPS-stimulated expression of TNF-α and TLR-4 (RT-PCR)” value in the test on RAW 264.7 cells (LPS 1 µg/mL, MccJ25 1 µg/mL) is given as “this stimulatory effect was inhibited”. The “LPS-induced TNF-α and NO secretion” value with RAW 264.7 cells (LPS 1 µg/mL, MccJ25 1 µg/mL, 3 h) is on record as “this increase in secretion was alleviated”. For the same molecule, in the test with RAW 264.7 cells (western blot, after LPS challenge), the “MyD88, TLR4, TNF-α and IL-6 protein expression” value is “sharply decreased”. For the same molecule, in the test on RAW 264.7 cells (western blot, after LPS challenge for 3 h), the “p-NF-κB and MyD88 protein expression” value was “significantly decreased”.
